Legend:
[1] = test system: PTEN; test: ob/ob mice (Example 50): PTEN levels; format: in vivo, mouse; details: high fat high cholesterol diet, 50 mg/kg i.p. twice a week, six weeks
Description: (§1) Ob/ob mice receiving a high fat, high cholesterol diet (60% kcal fat supplemented with 0.15% cholesterol) were treated with one of several oligonucleotides to evaluate their effect on apolipoprotein B-related phenotypic endpoints in ob/ob mice. After overnight fasting, mice from each group were dosed intraperitoneally twice a week with 50 mg/kg of ISIS 147483 (SEQ ID NO: 79), or 147764 (SEQ ID NO: 109), or the controls ISIS 116847 (SEQ ID NO: 857), or 141923 (SEQ ID NO: 858), or saline for six weeks. At study termination and forty eight hours after the final injections, animals were sacrificed and evaluated for target mRNA levels in liver, cholesterol and triglyceride levels, liver enzyme levels, serum glucose levels, and PTEN levels.

[2] = ob/ob mice (Example 50): cholesterol, lipid, triglyceride, liver enzyme and glucose levels; format: in vivo, mouse; details: high fat high cholesterol diet, 50 mg/kg i.p. twice a week, six weeks
Description: as §1

[3] = test system: apolipoprotein B mRNA; test: ob/ob mice (Example 50): apolipoprotein B mRNA levels in liver; format: in vivo, mouse; details: liver, high fat high cholesterol diet, 50 mg/kg i.p. twice a week, six weeks
Description: as §1

[4] = test system: mouse apolipoprotein B mRNA; test: Inhibition of mouse apolipoprotein B mRNA levels in primary mouse hepatocytes, real-time PCR; format: cell-based
Description: Primary mouse hepatocytes were prepared from CD-1 mice purchased from Charles River Labs (Wilmington, Mass.) and were routinely cultured in Hepatoyte Attachment Media (Gibco) supplemented with 10% Fetal Bovine Serum (Gibco/Life Technologies, Gaithersburg, Md.), 250 nM dexamethasone (Sigma), and 10 nM bovine insulin (Sigma). Cells were seeded into 96-well plates (Falcon-Primaria #3872) at a density of 10000 cells/well for use in RT-PCR analysis.
When cells reached 80% confluency, they were treated with oligonucleotide. For cells grown in 96-well plates, wells were washed once with 200 μL OPTI-MEM™-1 reduced-serum medium (Gibco BRL) and then treated with 130 μL of OPTI-MEM™-1 containing 3.75 μg/mL LIPOFECTIN™ (Gibco BRL) and the desired concentration of oligonucleotide. After 4-7 hours of treatment, the medium was replaced with fresh medium. Cells were harvested 16-24 hours after oligonucleotide treatment.
Quantitation of apolipoprotein B mRNA levels was determined by real-time quantitative PCR using the ABI PRISM™ 7700 Sequence Detection System (PE-Applied Biosystems, Foster City, Calif.) according to manufacturer's instructions. This is a closed-tube, non-gel-based, fluorescence detection system which allows high-throughput quantitation of polymerase chain reaction (PCR) products in real-time. As opposed to standard PCR, in which amplification products are quantitated after the PCR is completed, products in real-time quantitative PCR are quantitated as they accumulate. This is accomplished by including in the PCR reaction an oligonucleotide probe that anneals specifically between the forward and reverse PCR primers, and contains two fluorescent dyes. A reporter dye (e.g., JOE, FAM, or VIC, obtained from either Operon Technologies Inc., Alameda, Calif. or PE-Applied Biosystems, Foster City, Calif.) is attached to the 5′ end of the probe and a quencher dye (e.g., TAMRA, obtained from either Operon Technologies Inc., Alameda, Calif. or PE-Applied Biosystems, Foster City, Calif.) is attached to the 3′ end of the probe. When the probe and dyes are intact, reporter dye emission is quenched by the proximity of the 3′ quencher dye. During amplification, annealing of the probe to the target sequence creates a substrate that can be cleaved by the 5′-exonuclease activity of Taq polymerase. […] With each cycle, additional reporter dye molecules are cleaved from their respective probes, and the fluorescence intensity is monitored at regular intervals by laser optics built into the ABI PRISM™ 7700 Sequence Detection System. In each assay, a series of parallel reactions containing serial dilutions of mRNA from untreated control samples generates a standard curve that is used to quantitate the percent inhibition after antisense oligonucleotide treatment of test samples.
Probes and primers to mouse apolipoprotein B were designed to hybridize to a mouse apolipoprotein B sequence, using published sequence information (GenBank accession number M35186, incorporated herein as SEQ ID NO: 10). For mouse apolipoprotein B the PCR primers were: forward primer: CGTGGGCTCCAGCATTCTA (SEQ ID NO: 11) reverse primer: […] (SEQ ID NO: 12) and the PCR probe was: FAM-[…]-TAMRA SEQ ID NO: 13) where FAM (PE-Applied Biosystems, Foster City, Calif.) is the fluorescent reporter dye) and TAMRA (PE-Applied Biosystems, Foster City, Calif.) is the quencher dye. For mouse GAPDH the PCR primers were: forward primer: […] (SEQ ID NO: 14) reverse primer: […] (SEQ ID NO:15) and the PCR probe was: 5′ JOE-[…]-TAMRA 3′ (SEQ ID NO: 16) where JOE (PE-Applied Biosystems, Foster City, Calif.) is the fluorescent reporter dye) and TAMRA (PE-Applied Biosystems, Foster City, Calif.) is the quencher dye.
In accordance with the present invention, a series of oligonucleotides was designed to target different regions of the mouse apolipoprotein B RNA, using published sequence (GenBank accession number M35186, incorporated herein as SEQ ID NO: 10). […]

[5] = test system: apolipoprotein B mRNA; test: LDLr(-/-) mice dose response (Example 44): apolipoprotein B mRNA; format: in vivo, mouse; details: 20 mg/kg, six weeks
Description: LDLr(−/−) mice, purchased from Taconic (Germantown, N.Y.) were used to evaluate antisense oligonucleotides for their potential to lower apolipoprotein B mRNA or protein levels, as well as phenotypic endpoints associated with apolipoprotein B. LDLr(−/−) mice were separated into groups of males and females. LDLr(−/−) mice were dosed intraperitoneally twice a week for six weeks with either 10, 25, or 50 mg/kg of ISIS 147764 (SEQ ID NO: 109) or ISIS 270906 (SEQ ID NO: 856) which is a 4 base mismatch of ISIS 147764, or with saline, or 20 mg/kg of Atorvastatin. At study termination animals were sacrificed and evaluated for several phenotypic markers.

[6] = High fat fed C57BL/6 mice, 6 week timecourse: serum cholesterol, triglyceride, lipoprotein and glucose levels; format: in vivo, mouse; details: for Percent Inhibition HDL / Percent Inhibition LDL / Percent Inhibition VLDL: 20 mg/kg daily oral, negative = increase
Description: Male C57BL/6 mice (n=8) receiving a high fat diet (60% kcal fat) were evaluated over the course of 6 weeks for the effects of treatment with the antisense oligonucleotide, ISIS 147764. Control animals received saline treatment (50 mg/kg). A subset of animals received a daily oral dose (20 mg/kg) atorvastatin calcium (Lipitor®, Pfizer Inc.). All mice, except atorvastatin-treated animals, were dosed intraperitoneally every three days (twice a week), after fasting overnight, with 5, 25, 50 mg/kg ISIS 147764 (SEQ ID No: 109) or saline (50 mg/kg) for six weeks. Serum cholesterol and lipoproteins were analyzed at 0, 2 and 6 week interim timepoints. At study termination, animals were sacrificed 48 hours after the final injections and evaluated for levels of target mRNA levels in liver, cholesterol, lipoprotein, triglyceride, liver enzyme (AST and ALT) and serum glucose levels as well as body, liver, spleen and fat pad weights.
(§2) Male C57BL/6 mice (n=8) receiving a high fat diet (60% kcal fat) were evaluated over the course of 6 weeks for the effects of ISIS 147764 on serum cholesterol and triglyceride levels. Control animals received saline treatment (50 mg/kg). Mice were dosed intraperitoneally every three days (twice a week), after fasting overnight, with 5, 25, 50 mg/kg ISIS 147764 (SEQ ID No: 109) or saline (50 mg/kg) for six weeks.
Values in the table are expressed as percent inhibition and are normalized to the saline control.
In addition to serum cholesterol, at study termination, animals were sacrificed 48 hours after the final injections and evaluated for triglyceride levels.
as §2, with “lipoprotein (VLDL, LDL” for “serum cholesterol”, “HDL)” for “triglyceride”
Values in the table are expressed as percent inhibition and are normalized to the saline control. Negative values indicate an observed increase in lipoprotein levels.
as §2, with “glucose” for “cholesterol and triglyceride”
At study termination, animals were sacrificed 48 hours after the final injections and evaluated for serum glucose levels. […] Mice treated with atorvastatin at a daily oral dose of 20 mg/kg had serum glucose levels of 215 mg/dL.

[7] = format: in vivo, mouse
Excerpt: (§3) Female ApoE knockout mice ranged in age from 5 to 7 weeks and were placed on a normal diet for 2 weeks before study initiation. ApoE knockout mice were then fed ad libitum a 60% fat diet, with 0.15% added cholesterol to induce dyslipidemia and obesity. Control animals were maintained on a high-fat diet with no added cholesterol. […]
(§4) At study termination and forty eight hours after the final injections, animals were sacrificed and evaluated for target mRNA levels in liver by RT-PCR methods verified by Northern Blot analysis, glucose levels, cholesterol and lipid levels by HPLC separation methods and triglyceride and liver enzyme levels (performed by LabCorp Preclinical Services; San Diego, Calif.).
(§5) Data are normalized to saline controls.

[8] = High fat fed C57BL/6 mice, 6 week timecourse: serum AST and ALT levels; format: in vivo, mouse; details: daily oral dose of 20 mg/kg
Description: Male C57BL/6 mice (n=8) receiving a high fat diet (60% kcal fat) were evaluated over the course of 6 weeks for the effects of ISIS 147764 on liver enzyme (AST and ALT) levels. Increased levels of the liver enzymes ALT and AST indicate toxicity and liver damage. Control animals received saline treatment (50 mg/kg). […] AST and ALT levels were measured at 6 weeks.

[9] = High fat fed C57BL/6 mice, 6 week timecourse: body, spleen, liver and fat pad weight; format: in vivo, mouse; details: 20 mg/kg daily, six weeks, vs saline-treated controls
Description: Male C57BL/6 mice (n=8) receiving a high fat diet (60% kcal fat) were evaluated over the course of 6 weeks for the effects of ISIS 147764 on body, spleen, liver and fat pad weight. Control animals received saline treatment (50 mg/kg). […]
At study termination, animals were sacrificed 48 hours after the final injections and body, spleen, liver and fat pad weights were measured. Values are expressed as percent change in body weight or ogan weight compared to the saline-treated control animals. Negative values indicated a decrease in weight.

[10] = test system: apolipoprotein B mRNA; test: ApoE knockout mice (Example 28): target mRNA levels in liver; format: in vivo, mouse; details: high fat diet, 20 mg/kg daily
Excerpt: as §3, §4, §5

[11] = ApoE knockout mice, high fat diet, 20 mg/kg daily

## 116847 (antisense CTGCTAGCCTCTGGATTTGA; listed as DNA, chemistry not given here) [compound 116847]
[1]
  mRNA % control PTEN: 20.0 % control
[2]
  Glucose: 135.5 mg/dL
  Lipoproteins CHOL: 287.5 mg/dL
  Lipoproteins TRIG: 196.5 mg/dL
  Liver Enzymes ALT: 607.5 IU/L
  Liver Enzymes AST: 343.2 IU/L
[3]
  mRNA % control ApoB: 77.0 % control

## 147483 (ATGTCAATGCCACATGTCCA; phosphorothioate, 2'-MOE wings, chemistry not fully specified) [compound 147483]
[1]
  mRNA % control PTEN: 143.2 % control
[4]; Table 4, 50 nM
  Percent Inhibition 50 nM: 56%
[4]; Table 4, 150 nM
  Percent Inhibition 150 nM: 88%
[4]; Table 4, 300 nM
  Percent Inhibition 300 nM: 89%
[2]
  Glucose: 213.2 mg/dL
  Lipoproteins CHOL: 250.0 mg/dL
  Lipoproteins TRIG: 99.8 mg/dL
  Liver Enzymes ALT: 941.7 IU/L
  Liver Enzymes AST: 790.2 IU/L
[3]
  mRNA % control ApoB: 25.2 % control

## CC(C)c1c(C(=O)Nc2ccccc2)c(-c2ccccc2)c(-c2ccc(F)cc2)n1CC[C@@H](O)C[C@@H](O)CC(=O)O [atorvastatin, atorvastatin calcium, reference compound]
[5]; female LDLr(-/-) mice
  apolipoprotein B mRNA % control: 109.0 % control
[5]; male LDLr(-/-) mice
  apolipoprotein B mRNA % control: 110.9 % control
[6]; 0 weeks
  Percent Inhibition HDL: 0%
  Percent Inhibition LDL: 0%
  Percent Inhibition VLDL: 0%
[6]; 2 weeks
  Percent Inhibition HDL: 15%
  Percent Inhibition LDL: 10%
  Percent Inhibition VLDL: 15%
[6]; 6 weeks
  Percent Inhibition HDL: 20%
  Percent Inhibition LDL: −10%
  Percent Inhibition VLDL: −5%
[6]; daily oral dose of 20 mg/kg
  serum glucose levels: 215 mg/dL
[6]; oral dose of 20 mg/kg, study termination
  decrease in serum cholesterol: 20%
[7]; [11]
  Cholesterol Levels: 938 mg/dL
  Glucose Levels: 162 mg/dL
  Lipoprotein Levels HDL: 42 mg/dL
  Lipoprotein Levels LDL: 250 mg/dL
  Lipoprotein Levels VLDL: 653 mg/dL
[7]; mouse, in vivo, 20 mg/kg
  Liver Enzyme Levels ALT: 76 IU/L
  Liver Enzyme Levels AST: 75 IU/L
[8]
  AST levels: 85 IU/L
  AST levels (printed in the ALT paragraph): 40 IU/L
[9]
  Percent Change Fat (fat pad weight): 7%
  Percent Change Liver weight: 15%
  Percent Change Spleen weight: 10%
  Percent Change Total Body Wt.: 1%
[10]
  mRNA Percent Inhibition: 10%

— patent publication US7803930B2, “Antisense modulation of apolipoprotein B-expression” (Isis Pharmaceuticals, Inc., priority 2002, dated 2010)
